Source: publication PMC12645437, “Orthogonal IMiD-Degron Pairs Induce Selective Protein Degradation in Cells” (ACS Chemical Biology, 2025)
Where “and” joins values, the source holds several entries; their conditions need not be identical. Identical values can stand only once.

Columns and labels:
[1] = biological target: HEIP mutant ZF degron fused to EGFP (Homo sapiens, UniProt Q96SW2+Q9UKT9, N149E/Q147H/Q150I/S154P); assay: Ratiometric EGFP:mCherry flow cytometry degradation assay, 18 h
[2] = biological target: FDIP mutant ZF degron fused to EGFP (Homo sapiens, UniProt Q96SW2+Q9UKT9, N149D/Q147F/Q150I/S154P); assay: as above
[3] = biological target: AEVK mutant ZF degron fused to EGFP (Homo sapiens, UniProt Q96SW2+Q9UKT9, N149E/Q147A/Q150V/S154K); assay: as above
[4] = system: embryonic stem cells (ESCs); assay: TMTpro quantitative proteomics, 16 h; conditions: 10 μM
Experimental: Quantitative proteomics screens were carried out in untransduced Jurkat cells, embryonic stem cells (ESCs), and the multiple myeloma cell line, MM.1S. We used Jurkat cells, as our work up to this point had employed this cell line, and we selected ESCs and MM.1S cells as they express known CRBN neosubstrates, including IKZF1, IKZF3, RAB28, RNF166, SALL4, ZFP91, and ZNF827.
Proteomics - cell lysis and protein digestion
The viability of Jurkat cells was tested after 16-h treatment with corresponding chemicals
viable cells in each condition. Next, ~10^7 cells per condition were collected by centrifugation (1000 rpm), washed twice with ice-cold PBS, and lysed in RIPA buffer [50 mM HEPES pH 7.4, 150 mM NaCl, 1% sodium deoxycholate, 1% NP-40, 0.1% SDS, 10 mM sodium pyrophosphate, 10 mM β-glycerophosphate, 2.5 mM MgCl2, 200 µM TCEP, phosphatase and protease inhibitor cocktail (in-house)], to produce whole cell extracts. Whole-cell extracts were sonicated, and protein concentrations were determined using the Bradford assay. Protein extracts (100 µg) were subjected to disulfide bond reduction with 5 mM TCEP (10 min) and alkylation with 25 mM chloroacetamide (20 min). Methanol–chloroform precipitation was performed prior to protease digestion. […]

[5] = biological target: WNQS mutant ZF degron fused to EGFP (Homo sapiens, UniProt Q96SW2+Q9UKT9, Q147W); assay: Ratiometric EGFP:mCherry flow cytometry degradation assay, 18 h
[6] = biological target: T1, HA-NanoLuc-WEIS (Homo sapiens, UniProt Q96SW2+Q9UKT9, N149E/Q147W/Q150I); assay: HA antibody immunoblotting in HEK293T cells; assay type: cell-based; conditions: 18 h, Western blot
T1 construct: pLVX-Sprout-IKZF3 130-189aa Q147W N149E Q150I (WEIS); expressed in transfected cells; host or cells: HEK293T, lentiviral transduction, puromycin-selected

[7] = biological target: T2, TRIM28 with C-terminal WEIS degron tag and HiBit tag (Homo sapiens, UniProt Q96SW2+Q9UKT9, N149E/Q147W/Q150I); assay: HiBiT luminescence degradation assay; assay type: cell-based; conditions: Jurkat, 24 h
T2 construct: pLVX-Sprout-IKZF3 130-189aa Q147W N149E Q150I (WEIS); TRIM28 (fusion partner / protein of interest, gene TRIM28, human entry Q13263 by my knowledge); expressed in transfected cells; host or cells: Jurkat, lentiviral transduction; endogenous TRIM28 knocked out by CRISPR

[8] = biological target: T3, endogenous IKZF1 (Homo sapiens, UniProt Q13422+Q96SW2); assay: Western blot for IKZF1 in WEIS-EGFP Jurkat cells; assay type: cell-based; conditions: Jurkat transduced with EGFP-WEIS, 18 h
T3 construct: endogenous in cells; host or cells: Jurkat (untransduced for immunostaining; WEIS-EGFP-transduced for the blot)

[9] = biological target: T1, HA-NanoLuc-WEIS; assay: Nano-Glo luminescence assay in HEK293T cells; assay type: cell-based; conditions: NanoGlo
Experimental: To this end, a nuclear protein, CDK9, and a cytoplasmic protein, HPRT1, were selected, in addition to a well-characterized enzyme capable of generating bioluminescence, NanoLuc. , Fusion constructs comprising a POI with an N-terminal HA tag linked to the POI by two glycine residues and a C-terminal WEIS motif linked to the POI by a flexible [sequence] linker region were exogenously expressed in HEK293T cells.
Compound 23 (10 mM stock in DMSO) was serially diluted 10-fold to create an 5-point dilution spanning 1n M–10 μM (final assay concentration) and an untreated control, with all concentrations at 0.1% DMSO. HEK293T cells transduced with HA-NanoLuc-WEIS lentiviral vectors were seeded in white, opaque, flat-bottom 96-well plate (Falcon) at 2 × 10^4 cells per well in 40 µL
signal was measured by adding 40 µL of the Nano-Glo lytic detection reagent (Promega),
incubating at rt for 3 minutes, then reading using an EnVision multimode plate reader
(PerkinElmer). […] Three biological repeats
were carried out for this assay, with each biological replicate plate comprising three replicate

[10] = biological target: T4, HA-CDK9-WEIS (Homo sapiens, UniProt Q96SW2+Q9UKT9, N149E/Q147W/Q150I); assay: HA antibody immunoblotting in HEK293T cells; assay type: cell-based; conditions: 18 h, Western blot
T4 construct: IKZF3 130aa-142aa 170-189aa fused to EGFP; CDK9 (protein of interest, fusion partner N-terminal of the degron); expressed in transfected cells; host or cells: HEK293T, lentivirally transduced (Cilantro2-derived plasmid, Addgene #74450, EGFP replaced by HA-POI-WEIS)

[11] = biological target: WEIS mutant ZF degron fused to EGFP (Homo sapiens, UniProt Q96SW2+Q9UKT9, N149E/Q147W/Q150I); assay: Ratiometric EGFP:mCherry flow cytometry degradation assay, 18 h
Chain of WEIS mutant ZF degron fused to EGFP (Q9UKT9 130-189 Q147W/N149E/Q150I): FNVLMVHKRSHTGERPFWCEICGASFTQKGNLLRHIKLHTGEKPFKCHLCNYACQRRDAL
Chain of WEIS mutant ZF degron fused to EGFP (Q96SW2 whole entry, the tested form may be a part): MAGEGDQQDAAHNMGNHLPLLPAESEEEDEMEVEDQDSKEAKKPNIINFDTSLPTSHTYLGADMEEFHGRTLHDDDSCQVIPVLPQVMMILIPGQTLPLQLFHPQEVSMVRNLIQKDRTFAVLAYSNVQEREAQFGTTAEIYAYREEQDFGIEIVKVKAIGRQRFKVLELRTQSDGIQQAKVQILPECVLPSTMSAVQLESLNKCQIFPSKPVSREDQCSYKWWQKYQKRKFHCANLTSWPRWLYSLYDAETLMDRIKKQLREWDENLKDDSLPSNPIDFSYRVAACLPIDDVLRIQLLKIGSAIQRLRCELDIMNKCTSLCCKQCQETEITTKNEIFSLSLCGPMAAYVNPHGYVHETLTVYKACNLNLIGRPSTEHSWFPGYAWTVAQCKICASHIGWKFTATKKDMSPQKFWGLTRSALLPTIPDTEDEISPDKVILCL
Chain of WEIS mutant ZF degron fused to EGFP (Q16531 whole entry partner, the tested form may be a part): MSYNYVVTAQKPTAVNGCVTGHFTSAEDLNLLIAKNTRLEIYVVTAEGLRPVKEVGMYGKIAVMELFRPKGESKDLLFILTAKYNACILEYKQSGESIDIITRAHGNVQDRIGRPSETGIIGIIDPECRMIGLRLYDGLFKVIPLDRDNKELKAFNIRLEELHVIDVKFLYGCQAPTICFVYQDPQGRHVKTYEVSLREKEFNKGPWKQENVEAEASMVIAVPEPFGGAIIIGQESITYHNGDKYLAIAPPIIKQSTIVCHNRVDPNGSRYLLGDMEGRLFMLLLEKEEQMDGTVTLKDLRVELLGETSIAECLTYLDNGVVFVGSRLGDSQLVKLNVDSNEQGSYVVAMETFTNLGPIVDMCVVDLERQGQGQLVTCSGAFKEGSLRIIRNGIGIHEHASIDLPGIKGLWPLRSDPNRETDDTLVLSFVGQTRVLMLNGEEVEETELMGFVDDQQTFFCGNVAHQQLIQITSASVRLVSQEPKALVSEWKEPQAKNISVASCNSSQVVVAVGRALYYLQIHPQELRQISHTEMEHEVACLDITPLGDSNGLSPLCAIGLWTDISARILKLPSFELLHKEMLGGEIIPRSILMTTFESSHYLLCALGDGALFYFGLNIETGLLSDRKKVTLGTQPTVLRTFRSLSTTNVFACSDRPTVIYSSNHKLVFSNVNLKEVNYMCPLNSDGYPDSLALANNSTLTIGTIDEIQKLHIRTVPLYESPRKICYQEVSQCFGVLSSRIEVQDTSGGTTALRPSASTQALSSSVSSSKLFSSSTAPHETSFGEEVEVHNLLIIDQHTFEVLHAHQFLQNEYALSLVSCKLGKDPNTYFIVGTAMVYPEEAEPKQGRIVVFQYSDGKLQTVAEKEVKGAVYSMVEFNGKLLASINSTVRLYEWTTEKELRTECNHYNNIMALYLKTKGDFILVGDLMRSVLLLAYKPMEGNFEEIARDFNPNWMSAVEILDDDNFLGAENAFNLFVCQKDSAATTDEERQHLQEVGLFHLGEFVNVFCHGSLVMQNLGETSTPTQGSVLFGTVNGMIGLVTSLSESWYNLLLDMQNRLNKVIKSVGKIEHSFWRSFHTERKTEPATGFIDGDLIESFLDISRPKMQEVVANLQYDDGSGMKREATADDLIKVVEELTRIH

Chain of AEVK mutant ZF degron fused to EGFP (Q9UKT9 130-189 Q147A/N149E/Q150V/S154K): as the sequence (Q9UKT9 130-189 Q147W/N149E/Q150I) above, with W18A, I21V, S25K counted along it
Chain of AEVK mutant ZF degron fused to EGFP (Q96SW2 whole entry, the tested form may be a part): as the sequence (Q96SW2 whole entry, the tested form may be a part) above
Chain of AEVK mutant ZF degron fused to EGFP (Q16531 whole entry partner, the tested form may be a part): as the sequence (Q16531 whole entry partner, the tested form may be a part) above
Chain of WNQS mutant ZF degron fused to EGFP (Q9UKT9 130-189 Q147W): as the sequence (Q9UKT9 130-189 Q147W/N149E/Q150I) above, with E20N, I21Q counted along it
Chain of WNQS mutant ZF degron fused to EGFP (Q96SW2 whole entry, the tested form may be a part): as the sequence (Q96SW2 whole entry, the tested form may be a part) above
Chain of WNQS mutant ZF degron fused to EGFP (Q16531 whole entry partner, the tested form may be a part): as the sequence (Q16531 whole entry partner, the tested form may be a part) above
Chain of HEIP mutant ZF degron fused to EGFP (Q9UKT9 130-189 Q147H/N149E/Q150I/S154P): as the sequence (Q9UKT9 130-189 Q147W/N149E/Q150I) above, with W18H, S25P counted along it
Chain of HEIP mutant ZF degron fused to EGFP (Q96SW2 whole entry, the tested form may be a part): as the sequence (Q96SW2 whole entry, the tested form may be a part) above
Chain of HEIP mutant ZF degron fused to EGFP (Q16531 whole entry partner, the tested form may be a part): as the sequence (Q16531 whole entry partner, the tested form may be a part) above
Chain of FDIP mutant ZF degron fused to EGFP (Q9UKT9 130-189 Q147F/N149D/Q150I/S154P): as the sequence (Q9UKT9 130-189 Q147W/N149E/Q150I) above, with W18F, E20D, S25P counted along it
Chain of FDIP mutant ZF degron fused to EGFP (Q96SW2 whole entry, the tested form may be a part): as the sequence (Q96SW2 whole entry, the tested form may be a part) above
Chain of FDIP mutant ZF degron fused to EGFP (Q16531 whole entry partner, the tested form may be a part): as the sequence (Q16531 whole entry partner, the tested form may be a part) above
T1 sequence (Q9UKT9 130-189 Q147W/N149E/Q150I): as the sequence (Q9UKT9 130-189 Q147W/N149E/Q150I) above
T1 sequence (Q96SW2 whole entry): as the sequence (Q96SW2 whole entry, the tested form may be a part) above
T1 sequence (Q16531 whole entry partner): as the sequence (Q16531 whole entry partner, the tested form may be a part) above
T4 sequence (Q9UKT9 130-189 Q147W/N149E/Q150I): as the sequence (Q9UKT9 130-189 Q147W/N149E/Q150I) above
T4 sequence (Q96SW2 whole entry, the tested form may be a part): as the sequence (Q96SW2 whole entry, the tested form may be a part) above
T2 sequence (Q9UKT9 130-189 Q147W/N149E/Q150I): as the sequence (Q9UKT9 130-189 Q147W/N149E/Q150I) above
T2 sequence (Q96SW2 whole entry, the tested form may be a part): as the sequence (Q96SW2 whole entry, the tested form may be a part) above
T3 sequence (Q13422 whole entry): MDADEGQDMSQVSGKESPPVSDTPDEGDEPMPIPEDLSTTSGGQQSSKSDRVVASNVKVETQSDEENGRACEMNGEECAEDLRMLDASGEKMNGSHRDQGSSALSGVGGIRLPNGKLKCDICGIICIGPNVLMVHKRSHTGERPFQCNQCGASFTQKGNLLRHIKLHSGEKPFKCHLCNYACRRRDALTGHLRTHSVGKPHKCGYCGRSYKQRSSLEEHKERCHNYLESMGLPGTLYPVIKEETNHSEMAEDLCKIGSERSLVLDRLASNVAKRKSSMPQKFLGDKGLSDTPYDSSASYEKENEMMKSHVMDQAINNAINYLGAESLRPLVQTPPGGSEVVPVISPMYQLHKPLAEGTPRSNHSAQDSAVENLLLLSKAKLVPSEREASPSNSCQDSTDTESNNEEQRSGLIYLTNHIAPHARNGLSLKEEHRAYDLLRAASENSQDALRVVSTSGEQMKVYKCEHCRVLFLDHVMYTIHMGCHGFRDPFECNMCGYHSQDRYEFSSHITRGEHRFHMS
T3 sequence (Q96SW2 whole entry): as the sequence (Q96SW2 whole entry, the tested form may be a part) above
T3 sequence (Q16531 whole entry partner): as the sequence (Q16531 whole entry partner, the tested form may be a part) above

CC(C)(C)c1ccc2c(c1)C(=O)N(C1CCC(=O)NC1=O)C2=O (centres unmarked) [Compound 19]
Selectivity (WT/mutant) ([1]; DC50(WT)/DC50(HEIP)): 25 and 25.1 | DC50 ([1]; HEIP, Jurkat, 18 h): 30.2 nM | pDC50 ([1]; HEIP, Jurkat, 18 h): 7.52 | Selectivity (WT/mutant) ([2]; DC50(WT)/DC50(FDIP)): 12.0 | DC50 ([2]; FDIP, Jurkat, 18 h): 63.1 nM | pDC50 ([2]; FDIP, Jurkat, 18 h): 7.20 | DC50 ([3]; AEVK, Jurkat, 18 h): 27.5 nM | pDC50 ([3]; AEVK, Jurkat, 18 h): 7.56 | Selectivity (WT/mutant) ([3]; DC50(WT)/DC50(AEVK)): 28

CN1CCN(c2ccc3c(c2)C(=O)N(C2CCC(=O)NC2=O)C3=O)CC1 (centres unmarked) [Compound 23]
proteins degraded (quantitative proteomics) [4]: did not induce any protein degradation | Selectivity (WT/mutant) ([5]; DC50(WT)/DC50(WNQS)): 5 | DC50 ([5]; WNQS, Jurkat, 18 h): 126 nM | pDC50 ([5]; WNQS, Jurkat, 18 h): 6.90 | D max [6]: 89% | DC50 [6]: 47.8 nM | DC50 [7]: 125 nM | D max ([7]; with 10 μM): 83% | degradation of endogenous IKZF1 (Western blot) [8]: showed no degradation | D max ([9]; 6 h): 53% | D max ([9]; 18 h): 35% | DC50 ([9]; 18 h): 290 nM | D max [10]: 70% | DC50 [10]: 299 nM | Selectivity (WT/mutant) ([11]; DC50(WT)/DC50(WEIS)): 35 | DC50 ([11]; WEIS, Jurkat, 18 h): 18.2 nM | pDC50 ([11]; WEIS, Jurkat, 18 h): 7.74
